{"source": "patent US9109048B2", "about": "“Inhibition of tumor growth” (priority 1998, dated 2015)", "key": {"C26 colon carcinoma": {"system": "C26 colon carcinoma", "test": "Murine C26 colon carcinoma model", "assay_type": "in vivo, Balb/c mice", "experimental": "The antitumoral activity of the peptide, Ad-LFB 14-31 A2,3,6,10,17,F7,R4,K11,L14-NH2, (NDDO1) was tested in a murine C26 colon carcinoma model established in syngenic Balb/c mice. C26 cells (5×10^6 cells in 50 μl) cells were inoculated subcutaneously on the abdomen of the mice (3 animals) and grown into proper size (20-30 mm^2) before treatment start. At day 7 the tumors were treated intra-tumorally with 0.5 mg/50 μl peptide once a day for three consecutive days and the progression was followed. […] In this mouse C26 tumor cells (5×10^6 cells in 50 μl) were re-inoculated subcutaneously three weeks after peptide treatment."}, "[1]": {"system": "Meth A cells (murine sarcoma cell line)", "test": "Cytotoxicity on Meth A cells, MTT method", "experimental": "Peptide solutions (0.1 ml) were added and the plates incubated at 37° C. for 30 minutes, 4 hours or 24 hours. The cytotoxicity was measured using the MTT method (Mosmann et al., J. Immunol. (1986) 136, 2348-2357).\nCells in the growth phase were harvested and washed in fresh medium and injected subcutaneously into the abdominal region of the mice.\nThe cytotoxic effect of the peptides on different murine and human tumor cells were measured using the MTT method (Mosmann et al., J. Immunol. (1986) 136, 2348-2357).\nMTT is a soluble tetrazolium salt yielding a yellow solution when prepared in media or salt solutions lacking phenol red. Dissolved MTT is converted to an insoluble purple formazan by cleavage of the tetrazolium ring by dehydrogenase enzymes. This water insoluble formazan can be solubilized using isopropanol or other solvents and the dissolved material is measured spectrophotometrically. The absorbance was measured as a function of concentration of converted dye.\nCells were maintained in […] medium containing 10% FBS, 1% L-glutamine and 0.1% penicillin and streptomycin. Cells to be used in the assay were grown to confluency, trypsinated and split to single cell suspension, counted and centrifuged at 1500 rpm for 10 min. […][…] of cell suspension was transferred to each well on a 96-well microtiter plate. The cells were stimulated by adding […] of various concentrations of peptides diluted with assay medium to each well. The final concentrations of peptide were for example: 5, 10, 20, 40, 60, 80, 100, and 200 mg/ml. […] As a negative control only medium was added to the cells, and as a positive control (100% killing) 1% triton X-100 was added. Following an incubation period of 4 h., 20 ml MTT dissolved in PBS at a concentration of 5 mg/ml was added to each well, and the plate was incubated further for 2 h. 130 ml of the supernatant were then removed and […] acid alcohol (0.04-0.1 N HCl in isopropanol) added to each well to dissolve the dark blue crystals. The plate was placed on a shaker for 1 h and read spectrophotometrically at 590 nm in a microtiterplate reader using the Softmaxâ program."}, "[2]": {"system": "A20 B-cell lymphoma tumor", "test": "Re-inoculation of A20 cells after successful peptide treatment", "assay_type": "in vivo, Balb/c mice", "settings": "no further administration of peptides", "text": "b) Mice in which a A20 B-cell lymphoblast tumor had successfully been eradicated as described above were re-inoculated with 5×10^6 cells of A20 B-cell lymphoma tumor. Untreated mice served as a negative control. No further administration of peptides or any other anti-tumor agents took place."}, "Meth A tumor cells": {"system": "Meth A tumor cells", "test": "Reinoculation of Meth A cells after successful treatment", "assay_type": "in vivo, mice", "settings": "reinoculation 1 month after successful treatment, no further treatment"}, "[3]": {"system": "A20 B-cell lymphoblastoma", "test": "Adoptive transfer of spleen cells from cured mice", "assay_type": "in vivo, Balb/c mice", "settings": "donors cured with the peptide; versus naive donors", "experimental": "Syngenic Balb/c mice were selected as a model system to investigate the long-term anti-tumor immunity conferred by an initial treatment with a lytic peptide (H2N-WKKWdipKKWK-COOH—Mod 39 (SEQ ID NO: 42)) against A20 B-cell lymphoblastoma. Tumour cells (5×10^6) were inoculated subcutaneously on the abdomen of the mice and grown into proper size (20-30 mm^2) before treatment start. The mice were treated intra-tumorally with 0.5 mg/50 μl peptide once a day for three consecutive days and the progression was followed. Mice that were successfully treated were selected as donors (treated donor) for adoptive transfer of spleen cells, 3 weeks after tumor eradication.\nDay 1—Naive acceptor mice were subjected to a Total Body Irradiation (TBI) of 500 cGy in preparation for receiving adoptive transfer of immune cells from spleen donors.\nDay 2—Single-cell suspensions of spleenocytes depleted of red blood cells from treated donor mice and naïve mice were prepared as previously described (Ward, B. A. et al., J. Immunology Aughust 1988, vol 141 p 1047), except that sterile H2O was used instead of ammonium chloride to eliminate red blood cells.\nDonor spleen cells (approximately 40 million) were injected i.v. into the tail vein of acceptor mice according to the methods described in Bogen B. et al., Eur J Immunology, May 1983, vol 13(5), pages 353-359. […]"}, "[4]": {"assay_type": "physicochemical", "text": "Peptide W3714, with three additional tryptophan residues (a total of five tryptophan residues in the peptide), has decreased activity. […] This has been physically observed during MIC testing procedures when the peptide tended to precipitate at high concentrations."}}, "note": "Square brackets hold non-standard residues; d marks the D form. Bip = N[C@@H](Cc1ccc(-c2ccccc2)cc1)C(=O)O", "data": [{"substance": "Ad-LFB 14-31 A2,3,6,10,17,F7,R4,K11,L14-NH2 [NDDO1]", "values": [{"measurement": "primary effect on C26 colon carcinoma", "setting": "C26 colon carcinoma; 3 animals, 0.5 mg/50 μl intra-tumorally once a day for three days", "result": "In one mouse full tumor regression was obtained"}, {"measurement": "effect of re-inoculating C26 cells", "setting": "C26 colon carcinoma; re-inoculated three weeks after peptide treatment, no further treatment", "result": "A regression of the tumor after an initial growth was obtained without any further treatment"}]}, {"substance": "H2N-FKCRRWQWRMKKLGAPSITCVRRAF-COOH (H-FKCRRWQWRMKKLGAPSITCVRRAF-OH; ends and bridges not checked) [Cyclic LFB, enzymatically cleaved fragment of bovine lactoferrin, from Morinaga, reference compound]", "values": [{"measurement": "concentration at which Meth A cells were effectively killed", "setting": "[1]; Meth A cells 1×10^4/ml, 4 h incubation (FIG. 2)", "result": "higher than 0.8 mg/ml"}, {"measurement": "Meth A cells killed", "setting": "[1]; at concentrations higher than 0.8 mg/ml", "result": "more than 99%"}, {"measurement": "tumor growth after re-inoculation of A20 cells", "setting": "[2]", "result": "no further growth occurred"}, {"measurement": "tumor establishment after reinoculation of Meth A cells", "setting": "Meth A tumor cells", "result": "some storm of adaptive immunity is shown"}]}, {"substance": "H2N-KAAKKAbipKAAKAbipKKAA-COOH (H-KAAKKA[Bip]KAAKA[Bip]KKAA-OH; SMILES C[C@H](NC(=O)[C@H](C)NC(=O)[C@H](CCCCN)NC(=O)[C@H](CCCCN)NC(=O)[C@H](Cc1ccc(-c2ccccc2)cc1)NC(=O)[C@H](C)NC(=O)[C@H](CCCCN)NC(=O)[C@H](C)NC(=O)[C@H](C)NC(=O)[C@H](CCCCN)NC(=O)[C@H](Cc1ccc(-c2ccccc2)cc1)NC(=O)[C@H](C)NC(=O)[C@H](CCCCN)NC(=O)[C@H](CCCCN)NC(=O)[C@H](C)NC(=O)[C@H](C)NC(=O)[C@@H](N)CCCCN)C(=O)O) [Peptide C12]", "values": [{"measurement": "time until the re-inoculated A20 tumor completely disappeared", "setting": "[2]", "result": 6, "unit": "days"}]}, {"substance": "H2N-WKKWdipKKWK-COOH [L-Mod 39]", "values": [{"measurement": "time until the re-inoculated A20 tumor completely disappeared", "setting": "[2]", "result": 10, "unit": "days"}]}, {"substance": "H2N-WKKWdipKKWK-COOH [Model 39]", "values": [{"measurement": "rejection of implanted A20 tumors in acceptors of spleen cells from cured mice", "setting": "[3]", "result": "able to reject implanted tumors"}]}, {"substance": "H-FKWRRWWWRMKKLWA-OH [LFBW3,7,14, H2N-Phe-Lys-Trp-Arg-Arg-Trp-Trp-Trp-Arg-Met-Lys-Lys-Leu-Trp-Ala-COOH]", "values": [{"measurement": "solubility in aqueous solutions", "setting": "[4]", "result": "less soluble in aquous solutions"}]}]}
